Assay results as given in article PMC8041370, “Limonoids from Guarea guidonia and Cedrela odorata: Heat Shock Protein 90 (Hsp90) Modulator Properties of Chisomicine D” (Journal of Natural Products, 2021).
Like-named read-outs stand apart in the source and are kept apart here. Blank lines part the entries; values can stand above or below the compound they belong to.

Assays:
Hsp90α [1] = target: T1, Hsp90α (Homo sapiens, UniProt P07900); experiment: Surface plasmon resonance binding to immobilized Hsp90α; design: purchased Stress-gen Bioreagents Corporation, Victoria, Canada SPP-776; details: SPR, 25 °C, mean ± standard deviation (n = 3)
Description: 1 and 4 μM), and, for each sample, a complete binding study was carried out in triplicate. The experiments were performed at 25 °C, using a flow rate of 50 μL/min, with 60 s monitoring of association and 300 s monitoring of dissociation. Changes in mass, due to the binding response, were recorded as resonance units (RU). To obtain the dissociation constant (KD), these responses were fit to a 1:1 Langmuir binding model by nonlinear regression, using the BiaEvaluation sofware program (GE Healthcare). Simple interactions were suitably fitted to a single-site bimolecular interaction model (A + B = AB), yielding a single KD.

[2] = test system: U937 (human myeloid leukemia) cell line; experiment: MTT cell viability, U937; assay type: cell-based; details: U-937, 48 h
Description: (§1) HeLa (cervical carcinoma) and U937 (pro-monocytic, human myeloid leukemia) cell lines were purchased from the American Type Cell Culture (ATCC) (Rockville, MD, USA). HeLa cells were maintained in DMEM, and U937 were cultured in RPMI 1640, both supplemented with 10% FBS, 100 mg/L streptomycin, and penicillin 100 IU/mL at 37 °C in a humidified atmosphere of 5% CO2. To ensure logarithmic growth, cells were subcultured every 2 days. Stock solutions of compound in DMSO were stored in the dark at 4 °C. Appropriate dilutions were prepared in culture medium immediately prior to use. […] PBMCs were isolated from buffy coats of healthy donors (kindly provided by the Blood Center of the Hospital of Battipaglia, Italy) by using standard Ficoll-Hypaque gradients. PBMCs were incubated with DMSO or compound 1 at 30 μM for 48 h. […] The number of viable cells was quantified by the MTT [3-(4,5-dimethylthiazol-2-yl)-2,5-diphenyl tetrazolium bromide] assay. Absorption at 550 nm for each well was assessed using Multiskan GO (Thermo Scientific). Half-maximal inhibitory concentration (IC50) values were calculated using GraphPad Prism 8. Experiments were performed in technical triplicates and repeated two times with similar results.

[3] = test system: HeLa (epithelial carcinoma) cells; experiment: MTT cell viability, HeLa; assay type: cell-based; details: Homo sapiens, 48 h
Description: as §1

[4] = test system: PBMC (nontumor human peripheral blood mononuclear cell line); experiment: Cytotoxicity on PBMC; assay type: cell-based; details: 30 μM, 48 h
Description: HeLa (cervical carcinoma) and U937 (pro-monocytic, human myeloid leukemia) cell lines were purchased from the American Type Cell Culture (ATCC) (Rockville, MD, USA). HeLa cells were maintained in DMEM, and U937 were cultured in RPMI 1640, both supplemented with 10% FBS, 100 mg/L streptomycin, and penicillin 100 IU/mL at 37 °C in a humidified atmosphere of 5% CO2. To ensure logarithmic growth, cells were subcultured every 2 days. Stock solutions of compound in DMSO were stored in the dark at 4 °C. Appropriate dilutions were prepared in culture medium immediately prior to use. […] PBMCs were isolated from buffy coats of healthy donors (kindly provided by the Blood Center of the Hospital of Battipaglia, Italy) by using standard Ficoll-Hypaque gradients. PBMCs were incubated with DMSO or compound 1 at 30 μM for 48 h.

U937 cells [5] = experiment: Cell cycle by propidium iodide flow cytometry and p-CDC2/CDC2 Western blot; assay type: cell-based, human
Description: (§2) U937 cells were preliminarily synchronized by serum starvation and then seeded in six-well plates at a cell density of 8 × 10^5 cell/well. After 24 h, they were incubated for 48 h in the presence of compound 1 at IC50 concentration (20 μm), with phenethyl isothiocyanate and DMSO as a positive and negative control, respectively. Apoptosis was evaluated by an annexin V–FITC/PI apoptosis detection kit (Dojindo EU GmbH, Munich, Germany), and the cell cycle was evaluated by propidium iodide (PI) staining of permeabilized cells, according to the available protocol, and flow cytometry (BD FACSCalibur flow cytometer, Becton Dickinson, San Jose, CA, USA). Data from 5000 events per sample were collected. The percentages of the elements in the hypodiploid region and in G1, S, and G2 phases of the cell cycle and apoptosis data were calculated using FlowJo (BD Biosciences). Experiments were performed in technical triplicates and repeated two times with similar results.
(§3) Whole cell lysates (U937) for immunoblot analysis were lysed with RIPA buffer (20 mM Tris-HCl pH 7.5, 150 mM NaCl, 1 mM EDTA, 1% NP-40, 1% sodium deoxycholate, 2.5 mM sodium pyrophosphate) supplemented with protease and phosphatase inhibitors. Protein concentration was determined by a Bradford solution for protein determination (Applichem) using BSA as a standard. Proteins were fractionated on SDS-PAGE, transferred into nitrocellulose membranes, and immunoblotted with the appropriate primary antibody. Signals were visualized with the appropriate horseradish peroxidase-conjugated secondary antibody and enhanced chemiluminescence (Amersham Biosciences-GE Healthcare, NY, USA). Densitometric analyses were carried out using the ImageJ software. Experiments were performed in duplicate.

U937 cells [6] = experiment: Apoptosis by annexin V-FITC/PI flow cytometry and caspase 3 Western blot; assay type: cell-based, human; details: U937, 20 μM
Description: as §2
Whole cell lysates (U937) for immunoblot analysis were lysed with RIPA buffer (20 mM Tris-HCl pH 7.5, 150 mM NaCl, 1 mM EDTA, 1% NP-40, 1% sodium deoxycholate, 2.5 mM sodium pyrophosphate) supplemented with protease and phosphatase inhibitors. Protein concentration was determined by a Bradford solution for protein determination (Applichem) using BSA as a standard. […]

Hsp90α [7] = target: T1, Hsp90α; experiment: Hsp90 ATPase activity; assay type: biochemical; details: 10 or 20 μM; data not shown
[8] = test system: Hsp90α client protein levels in U937 cells; experiment: Western blot of Hsp90α, Hsp70 and Hsp90 client protein levels; assay type: cell-based, human
Description: as §3
Proteins extracted from U937 cells following a 24 h treatment with 20 μM solution of compound 1 and from untreated cells (control) were fractionated on SDS-PAGE. The bands corresponding to the intact and truncated forms of Hsp90 (apparent molecular weight 90 and 70 kDa, respectively) were excised and subjected to a classical in-gel tryptic digestion. The resulting peptide mixtures were analyzed in positive ion full scan and dependent scan MS mode on a Q-Exactive Orbitrap mass spectrometer coupled with a nanoUltimate UHPLC system (Thermo Fisher Scientific, Waltham, MA, USA). Peptide separation was performed on a capillary EASY-Spray PepMap column (0.075 mm × 50 mm, 2 μm, Thermo Fisher Scientific) using aqueous 0.1% formic acid (A) and CH3CN containing 0.1% formic acid (B) as mobile phases and a linear gradient from 3% to 40% of B in 45 min and a 300 nL/min flow rate. Mass spectra were acquired over an m/z range from 400 to 1300. Dependent scan data were preliminarily analyzed to confirm the presence of Hsp90 in the digested gel-bands. To this aim, MS and MS/MS data underwent Mascot software (v2.5, Matrix Science, Boston, MA, USA) analysis using the nonredundant data bank UniprotKB/Swiss-Prot (release 2020_03). Parameter sets were as follows: trypsin cleavage; carbamidomethylation of cysteine as a fixed modification and methionine oxidation as a variable modification; a maximum of two missed cleavages; false discovery rate (FDR), calculated by searching the decoy database, 0.05. The data analysis of protein was carried out using the gene ontology tool in the UniProt Knowledgebase (UniProtKB; http://www.uniprot.org). Based on the achieved results, full mass chromatograms were analyzed using Xcalibur software by generating extracted ion spectra specific for the Hsp90 tryptic peptides completely covering the protein amino acidic sequence.

[9] = U937, 20 μM, 48 h, PI staining, Figure 2B

KD (Hsp90α [1]): no binding
SMILES: COC(=O)C[C@H]1C(C)(C)[C@H](OC(=O)C(O)C(C)C)[C@@H]2C=C3C4CC(=O)O[C@@H](c5ccoc5)[C@]4(C)CC[C@@H]3[C@@]1(C)C2=O (stereo partly drawn) [Compound 4, 3-(2′-hydroxyisovaleroyl)khasenegasin I]

KD (Hsp90α [1]): no binding
SMILES: C/C=C(\C)C(=O)O[C@@H]1/C=C\C2=C3CC(=O)O[C@@H](c4ccoc4)[C@]3(C)CC[C@]2(O)[C@]2(C)C(=O)C[C@@]1(C)[C@@H]2CC(=O)OC (relative stereo) [Compound 3, (9R*)-hydroxychisomicine A]

KD (Hsp90α [1]): no binding
SMILES: COC(=O)C[C@H]1C(C)(C)[C@H](O)[C@@H]2CC3=C4CC(=O)O[C@@H](c5ccoc5)[C@]4(C)CC[C@@H]3[C@@]1(C)C2=O [Compound 14, proceranolide]

Kd (Hsp90α [1]): 25.5 ± 3.4 nM
SMILES: COC(=O)[C@@H](OC(C)=O)[C@H]1C(C)(C)[C@H](O)[C@@H]2CC3=C4CC(=O)O[C@@H](c5ccoc5)[C@]4(C)CC[C@@H]3[C@@]1(C)C2=O [Compound 13, 6-O-acetylswietenolide]

IC50 ([2]; read-out: IC50 growth inhibition U937): 20000 ± 3000 nM
IC50 [3]: > 50000 nM
inhibition of Hsp90 ATPase activity (Hsp90α [7]): did not affect its enzymatic efficiency
Kd (Hsp90α [1]): 18.2 ± 1.9 nM
SMILES: C/C=C(\C)C(=O)O[C@@H]1/C=C\[C@]2(O)C3=CC(=O)O[C@@H](c4ccoc4)[C@]3(C)CC[C@]2(O)[C@]2(C)C(=O)C[C@@]1(C)[C@@H]2CC(=O)OC (relative stereo) [Compound 1, 8-hydro-(8S*,9S*)-dihydroxy-14,15-en-chisomicine A]
cytotoxic activity on PBMC [4]: did not show any cytotoxic activity
G1 phase (U937 cells [5]; [9]): 53,1
G2 phase (U937 cells [5]; [9]): 16,7
S phase (U937 cells [5]; [9]): 12,3
effect on cell cycle (U937 cells [5]; U937, 48 h (1 at 20 μM)): G2 phase cell cycle arrest
p-CDC2/CDC2 ratio (U937 cells [5]; U937, Western blot, 10 and 20 μM): increase
increase of late apoptosis compared to the negative control (U937 cells [6]; 48 h, annexin V/FITC): about 15%
pro-caspase 3 cleavage (U937 cells [6]; Western blot): induced the cleavage of pro-caspase 3
Hsp70 cellular levels ([8]; U937, 30 μM, 48 h): affected
ERK concentration ([8]; U937, 10, 20 and 30 μM, 48 h): no significant variation
Hsp90 amount ([8]; U937, 10, 20 and 30 μM, 48 h): down-regulated in a dose-dependent manner
p-ERK2 level ([8]; U937, 10, 20 and 30 μM, 48 h): strong depletion
Hsp90 cleavage ([8]; U937, 20 and 30 μM, 48 h): Hsp90 cleaved form, with an apparent molecular weight of 70 kDa, was observed
level of both isoforms of JNK ([8]; U937, 48 h, regardless of phosphorylation): significantly reduced

KD (Hsp90α [1]): no binding
SMILES: C=C(C)C(=O)O[C@@H]1/C=C\[C@]2(O)C3=CC(=O)O[C@@H](c4ccoc4)[C@]3(C)CC[C@]2(O)[C@]2(C)C(=O)C[C@@]1(C)[C@@H]2CC(=O)OC [Compound 2, chisomicine E]

More lines, now with the values behind:

SMILES: C[C@@H]1C[C@H]2O[C@@H]2/C=C\C=C\C(=O)Cc2c(Cl)c(O)cc(O)c2C(=O)O1 [radicicol, reference compound]
IC50 ([2]; positive control for HeLa and U937, cell line not specified, read-out: IC50 of positive control): 250 nM

SMILES: CC(=O)O[C@H]1C[C@@]2(C)[C@H](C3=CC(=O)O[C@@H]3O)OC(=O)[C@H]3O[C@]32[C@@]2(C)[C@H]1[C@@]1(C)[C@@H](OC(C)=O)CC(=O)OC(C)(C)[C@@H]1C[C@H]2OC(C)=O [Compound 6, 1,2-dihydro-7-deoxo-1α,7α,11β-triacetoxykihadanin A]
KD (Hsp90α [1]): no binding

SMILES: CC(=O)O[C@H]1CC(=O)OC(C)(C)[C@@H]2C[C@@H](OC(C)=O)[C@@]3(C)C4=CC[C@@H](C(O)(CO)CCO)[C@]4(C)CC[C@@H]3[C@@]12C (stereo partly drawn) [Compound 7, cedrelosin F]
KD (Hsp90α [1]): no binding

SMILES: CC(=O)O[C@H]1C[C@@]2(C)[C@H](C3=CC(=O)O[C@@H]3O)OC(=O)[C@H]3O[C@]32[C@@]2(C)[C@H]1[C@@]1(C)C=CC(=O)OC(C)(C)[C@@H]1C[C@H]2OC(C)=O [Compound 5, 7-deoxo-7α,11β-diacetoxykihadanin A]
KD (Hsp90α [1]): no binding

SMILES: CC(=O)O[C@H]1C[C@@]2(C)[C@H](c3ccoc3)OC(=O)[C@H]3O[C@]32[C@@]2(C)[C@H]1[C@@]1(C)C=CC(=O)OC(C)(C)[C@@H]1C[C@H]2OC(C)=O [Compound 11, 11β-acetoxybacunyl acetate]
Kd (Hsp90α [1]): 25.3 ± 1.8 nM

SMILES: CC(=O)O[C@H]1C[C@@]2(C)[C@H](C3=C[C@@H](O)OC3=O)OC(=O)[C@H]3O[C@]32[C@@]2(C)[C@H]1[C@@]13COC(=O)C[C@@H]1OC(C)(C)[C@@H]3C[C@H]2OC(C)=O [Compound 9, 11β-acetoxycedrelosin B]
KD (Hsp90α [1]): low affinity
Kd (Hsp90α [1]): 183 ± 18.9 nM

SMILES: CC(=O)O[C@H]1C[C@@]2(C)[C@H](c3ccoc3)OC(=O)[C@H]3O[C@]32[C@]2(C)[C@H](O)C[C@H]3C(C)(C)O[C@H]4CC(=O)OC[C@]43[C@@H]12 [Compound 8, 11β-acetoxylimonol]
Kd (Hsp90α [1]): 24.8 ± 2.3 nM

SMILES: CC(=O)O[C@H]1C[C@@]2(C)[C@H](c3ccoc3)OC(=O)[C@H]3O[C@]32[C@@]2(C)[C@H]1[C@@]1(C)[C@@H](OC(C)=O)CC(=O)OC(C)(C)[C@@H]1C[C@H]2OC(C)=O [Compound 10, 7α,11β-diacetoxydihydronomilin]
KD (Hsp90α [1]): no binding

SMILES: COC(=O)C[C@H](OC(C)=O)[C@]1(C)[C@H]2[C@@H](OC(C)=O)C[C@@]3(C)[C@H](c4ccoc4)OC(=O)[C@H]4O[C@]43[C@]2(C)[C@H](OC(C)=O)C[C@H]1C(C)(C)O [Compound 12, odoralide]
KD (Hsp90α [1]): no binding
